Data from paper PMC8234031, “Modular Assembly of Phosphite Dehydrogenase and Phenylacetone Monooxygenase for Tuning Cofactor Regeneration” (Biomolecules, 2021).

Target: T1, PAMOI (RIDD-tagged PAMO) (Thermobifida fusca, UniProt Q47PU3)
T1 construct: N-terminal 6xHis, C-terminal (GGGGS)x3 linker and 44-residue RIDD tag, kept; E. coli; 70 kDa; homodimer through the RIDD tag
Assay: UV-Vis absorbance ratio A280/A441 of the purified protein
Assay type: binding
Details: co-purified flavin; ratio given for the tagged PAMO fusions together

T1 sequence (Q47PU3 whole entry): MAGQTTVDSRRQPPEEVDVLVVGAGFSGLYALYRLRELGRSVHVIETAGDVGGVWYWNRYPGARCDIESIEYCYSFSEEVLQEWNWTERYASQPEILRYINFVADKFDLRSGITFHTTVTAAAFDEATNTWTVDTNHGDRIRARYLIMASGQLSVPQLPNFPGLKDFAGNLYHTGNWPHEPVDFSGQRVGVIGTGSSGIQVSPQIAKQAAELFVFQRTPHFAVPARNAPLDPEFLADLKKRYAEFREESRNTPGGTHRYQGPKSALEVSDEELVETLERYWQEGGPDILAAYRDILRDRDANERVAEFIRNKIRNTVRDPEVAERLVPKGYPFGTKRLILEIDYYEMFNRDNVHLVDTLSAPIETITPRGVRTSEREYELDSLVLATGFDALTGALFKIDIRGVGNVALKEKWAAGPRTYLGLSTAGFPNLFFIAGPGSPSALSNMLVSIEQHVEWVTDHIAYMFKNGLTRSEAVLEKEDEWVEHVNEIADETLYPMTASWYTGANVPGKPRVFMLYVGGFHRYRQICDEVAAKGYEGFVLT

Cc1cc2nc3c(=O)[nH]c(=O)nc-3n(C[C@H](O)[C@H](O)[C@H](O)COP(=O)(O)OP(=O)(O)OC[C@H]3O[C@@H](n4cnc5c(N)ncnc54)[C@H](O)[C@@H]3O)c2cc1C [FAD]
UV-Vis absorbance ratio A280/A441 of the purified protein: The tagged variants of PAMO were purified as yellow proteins
